{"source": "patent US9808434B2", "about": "“Compound for treating cancer and diabetes” (CITY OF HOPE, priority 2011, dated 2017)", "key": {"GSTP": {"target": "T1, GSTP (Homo sapiens, UniProt P09211)", "T1 construct": "made in house; host or cells: E. coli BL21 (DE3)", "assay": "GSTP activity towards CDNB in the presence of GSR4", "type": "biochemical", "conditions": "activity towards CDNB; read-out: estimated Ki (product inhibitor of GSTP)", "method": "Furthermore, GSTP activities towards CDNB were assessed in the presence of various concentration of GSR4. The GSTP activities decreased when the concentration of GSR4 increased (Table 3). Thus, […] was a product inhibitor of GSTP with an estimated Ki of less than 5 μM."}, "[1]": {"test_system": "human melanoma cells (SK-MEL28, A2058, A101D)", "assay": "Oxygen consumption rate in melanoma cells, Seahorse", "type": "cell-based", "conditions": "1-10 μM, monitored 2 h", "method": "(§1) Oxygen consumption rate (OCR), a measure of OxPhos, and extracellular acidification rate (ECAR), a measure of lactate production by glycolysis, were measured using a Seahorse Xf^e96 Flux Analyzers (Seahorse Biosciences, North Billerica, Mass.). Cells were seeded in DMEM media in Seahorse 96-well tissue culture plates at a density of 5×10^3 cells/well and allowed to adhere for 24 h. Prior to the assay, the media was changed to unbuffered DMEM containing 25 mM glucose, 1 mM pyruvate and 1 mM glutamine, with 0.2% fatty acid/endotoxin-free BSA (w/v) (pH 7.4) and the cells were equilibrated for 30 min at 37° C. Test compounds were injected during the assay and OCR and ECAR were measured using 2-3 min measurement periods. […] OCR was measured throughout the different injections of the stressors and test compounds (indicated by arrows in the figures).\nThe importance of mitochondria as oxygen sensors as well as producers of ATP and ROS has recently become a focal point of cancer research. […] OCR was continuously monitored for 2 h. Mitochondria recoupler 6-KCH (200 μM) was added to the assay system prior to injection of COH-SR4 (5 μM) as shown by arrows and OCR of A101D cells were monitored (FIG. 37B). […]"}, "p38 MAPK, ERK1/2, JNK": {"test_system": "p38 MAPK, ERK1/2, JNK", "assay": "MAPK/ERK signaling in melanoma cells, Western blotting", "type": "cell-based", "conditions": "0-10 μM; 5 μM 0-24 h", "method": "Cell or tissue proteins were extracted with cell lysis buffer (Cell Signaling Technology) and protein concentration was determined using the DC Protein Assay kit (Bio-Rad, Hercules, Calif., USA). Equal amount of proteins (˜40 μg) were loaded onto 4-15% Criterion TGX gels (Bio-Rad, Hercules, Calif.), resolved by SDS-PAGE electrophoresis, and then transferred onto nitrocellulose membranes for immunoblotting. Membranes were blocked with 5% skimmed milk in Tris-buffered saline containing 0.05% Tween 20 before incubation overnight at 4° C. with desired primary antibodies. Immuno-reactive proteins were visualized by peroxidase-labeled secondary antibodies and ECL system (Western Lightning Chemiluminescence Reagent, Perkin-Elmer, Mass., USA). […] Band intensities were quantified using a densitometer (Quantity One, Bio-Rad, Hercules, Calif.).\nTo investigate whether COH-SR4 affected the MAPK/ERK signaling pathway in human melanoma, the phosphorylation levels of p38 MAPK (T^180/Y^182), ERK1/2 (T^202/Y^204), and pJNK (T^183/Y^185), in A101D, A2058, SK-Mel-5, SK-MEL-28 and B16-F0 melanoma cells were examined after COH-SR4 treatment at various doses (0-10 μM) (FIG. 76A) or at a dose of 5 μM at various time points (0-24 h) (FIG. 76B). Total proteins were isolated and analyzed by Western blotting."}, "AMPK, ACC, Raptor, TSC2": {"test_system": "AMPK, ACC, Raptor, TSC2", "assay": "AMPK-mTOR signaling in lung cancer cells, Western-blot", "type": "cell-based, human", "method": "Cell or tissue proteins were extracted with cell lysis buffer (Cell Signaling Technology) and protein concentration was determined using the DC Protein Assay kit (Bio-Rad, Hercules, Calif., USA). Equal amount of proteins (˜40 μg) were loaded onto 4-15% Criterion TGX gels (Bio-Rad, Hercules, Calif.), resolved by SDS-PAGE electrophoresis, and then transferred onto nitrocellulose membranes for immunoblotting. Membranes were blocked with 5% skimmed milk in Tris-buffered saline containing 0.05% Tween 20 before incubation overnight at 4° C. with desired primary antibodies. Immuno-reactive proteins were visualized by peroxidase-labeled secondary antibodies and ECL system (Western Lightning Chemiluminescence Reagent, Perkin-Elmer, Mass., USA). Equal loading of proteins was confirmed by stripping and re-probing the membranes with either β-actin or GAPDH antibodies. Band intensities were quantified using a densitometer (Quantity One, Bio-Rad, Hercules, Calif.).\nAMPK was knocked down by siRNA and assessed the impact on COH-SR4-induced cytotoxicity. […] Thus, the in-vitro analyses of critical signaling proteins of cell proliferation further supported the anti-cancer effects of COH-SR4 in lung cancer cells."}, "[2]": {"test_system": "mouse C2C12, HepG2, and 3T3-L1 cells", "assay": "Oxygen consumption rate in myotubes, liver cells, adipocytes", "type": "cell-based", "method": "as §1, with “periods. Similar sets of experiments were performed in the presence of the mitochondria recoupler agent 6-KCH or the mitochondrial permeability transition (MPT) pore blocker CSA, where each compound was injected into the assay media prior to COH-SR4 or FCCP injection. In separate experiments with A2058 and A2058 p° cells, a modified Mitostress test was performed accordingly per Seahorse protocols (89, 90).” for “periods.”, “figures). […]” for “figures).”"}, "[3]": {"assay": "Metabolic effects in HFD obese mice", "type": "in vivo, mouse", "method": "All animal experiments were carried out in accordance with the protocols approved by the Institutional Animal Care and Use Committee of the City of Hope. Nine-week old male C57BL/6J mice fed on high fat diet (HFD, 60% fat) and 10-week old db/db mice were given COH-SR4 (5 mg/kg B.W.) or vehicle (corn oil) via oral gavage every other day for six and five weeks, respectively. Oral glucose tolerance test was performed on animals after an overnight fast. All other metabolic parameters were measured at the end of study. Liver samples were stained with H&E and Oil Red O.\nAll data represented are mean±SEM. *P<0.05, **P<0.01 vs. LFD or db/+; ^#P<0.05, ^##P<0.01 vs. HFD or db/db. n=12 animals per group for HFD mice. LFD=low fat diet (lean), HFD=high fat diet (obese). n=8 animals per group for db/db mice.\nRepresentative mice in each treatment group (LFD, HFD, and HFD treated with COH-SR4 (HFD+SR4)) depicted gross images of whole body shape (top) and abdominal fat (bottom) (FIG. 85A)."}}, "data": [{"smiles": "O=C(Nc1cc(Cl)cc(Cl)c1)Nc1cc(Cl)cc(Cl)c1", "note": "[COH-SR4, 1,3-bis(3,5-dichlorophenyl) urea]", "values": [{"measurement": "Ki", "setting": "GSTP", "value": "< 5", "unit": "µM"}, {"measurement": "oxygen consumption rate (OCR)", "setting": "[1]", "value": "increased OCR in a time-dependent and dose-dependent manner"}, {"measurement": "phosphorylation of p38 MAPK and ERK1/2", "setting": "p38 MAPK, ERK1/2, JNK", "value": "dose- and time dependent increase in the levels of phosphorylation of p38 MAPK (T^180/Y^182) and ERK1/2 (T^202/Y^204)"}, {"measurement": "phosphorylation of AMPK, ACC, Raptor, TSC2", "setting": "AMPK, ACC, Raptor, TSC2", "value": "increased phosphorylation of AMPK (pAMPK)"}, {"measurement": "OCR", "setting": "[2]", "value": "dose- and time dependently increased the OCR"}, {"measurement": "body weight", "setting": "[3]; 5 mg/kg oral every other day, six weeks", "value": "decreased body weight"}, {"measurement": "glucose tolerance", "setting": "[3]; six weeks", "value": "improved glucose tolerance"}, {"measurement": "hepatic lipid accumulation (Oil Red O, H&E)", "setting": "[3]; six weeks", "value": "little hepatic lipid accumulation"}, {"measurement": "plasma insulin concentration", "setting": "[3]; six weeks", "value": "lower plasma insulin concentration"}, {"measurement": "plasma lipids", "setting": "[3]; six weeks", "value": "significantly reduced plasma lipids"}, {"measurement": "food intake", "setting": "[3]; vs control HFD mice", "value": "No significant difference in food intake"}]}]}
